From ChEMBL document CHEMBL3132807, “Chemical motifs that redox cycle and their associated toxicity” (Medchemcomm, 2013) come the findings set out here.

Data set [1] in a line: Induction of ROS generation assessed as generation of H2O2 measured as oxidation of phenol red after 60 mins by phenol red assay. The format is physicochemical.
Data set [2] is described as follows: Cytotoxicity against human THLE cells assessed as ATP depletion after 72 hrs by CellTitre-Glo assay. Format: functional, cell-based.
A short description of data set [3]: Cytotoxicity against human THLE cells assessed as ATP depletion after 24 hrs by CellTitre-Glo assay. Format: functional, cell-based.
A short description of data set [4]: Cytotoxicity against human THLE cells assessed as ATP depletion after 4 hrs by CellTitre-Glo assay. Format: functional, cell-based.
The next data set deals with THLE. Nature of the data set: Cytotoxicity against human THLE cells assessed as ATP depletion by CellTitre-Glo assay. To be noted: TDE = time-dependent effect. The format is functional, cell-based.

Regarding `CC(=O)N/C=C1/C(=O)NC(=O)C(C#N)=C1C`, in data set [1], the concentration for a half-maximal effect (EC50) at 60 min was 250 µM.
Take `O=C1NC(=O)/C(=C\c2ccc(Cl)cc2)C2=C1CCCC2`: the EC50 at 60 min in data set [1] was found to be 0.5 µM.
Turning to `O=C1NC(=O)/C(=C\c2ccccc2)C2=C1CCC2`, the EC50 at 60 min in data set [1] amounted to 233 µM. In addition, the EC50 in data set [2], in data set [3] and in data set [4] was > 300 µM each time. In the data set with THLE, the Activity entry was “tde”.
With `Cc1cc2nc3c(=O)[nH]c(=O)nc-3n(C[C@H](O)[C@H](O)[C@H](O)CO)c2cc1C` [RIBOFLAVIN], the EC50 at 60 min in data set [1] stood at 129 µM. Further, the EC50 in data set [2], in data set [3] and in data set [4] was > 300 µM each time. In addition, the Activity result in the data set on THLE is “tde”.
Regarding `Cc1c2cc3c(ccc4ccccc43)oc-2nc(=O)c1C#N`, in data set [1], the EC50 at 60 min is 11 µM. Further, the EC50 in data set [2], in data set [3] and in data set [4] was > 300 µM each time. Further, the Activity result with THLE was “tde”.
Turning to `O=C1NC(=O)/C(=C\c2ccc(Cl)cc2Cl)C2=C1CCCC2`, the EC50 at 60 min in data set [1] amounted to 236 µM.
The same measure, in the same setting: the result for `O=C1NC(=O)/C(=C\c2ccc(O)cc2)C2=C1CCCC2` reads 8.6 µM.
Take `O=c1[nH]c(=O)c2nccnc2[nH]1`: the EC50 at 60 min in data set [1] amounted to 713 µM. For the same molecule, the EC50 in data set [2], in data set [3] and in data set [4] was > 300 µM throughout. The Activity result in the data set on THLE was “tde”.
Turning to `CC1=C(C)C(=O)c2ccccc2C1=O`, the EC50 at 60 min in data set [1] was 110 µM. Also, the values for the EC50 in data set [2], in data set [3] and in data set [4] were 21.1 µM, 23.1 µM and 40.9 µM, respectively. The Activity result with THLE is “tde”.
For `CCn1cc(C(=O)O)c(=O)c2cc(F)c(N3CCNCC3)cc21` [NORFLOXACIN], in that order: > 1000 µM, > 300 µM, > 300 µM, > 300 µM and “tde”.
`COc1ccc(-c2nc3c(=O)n(C)c(=O)nc-3n(C)n2)cc1`: in data set [1], the EC50 at 60 min is 2 µM. The figures for the EC50 in data set [2], in data set [3] and in data set [4] were 7.2 µM, 6 µM and 9.6 µM, respectively. Moreover, the Activity result with THLE was “tde”.
In the case of `Cn1nc(-c2ccccc2)cc2c(=O)n(C)c(=O)nc1-2`, in data set [1], the EC50 at 60 min is > 1000 µM. Also, the EC50 in data set [2], in data set [3] and in data set [4] was > 300 µM throughout. For the same molecule, in the data set on THLE, the Activity entry was “tde”.
Regarding `Cn1ncnc2c(=O)n(C)c(=O)nc1-2`, in data set [1], the EC50 at 60 min was 1 µM. Besides, the figures for the EC50 in data set [2], in data set [3] and in data set [4] were 3.2 µM, 2.1 µM and 2.7 µM, respectively. The Activity result in the data set on THLE is “tde”.
For `Cn1nc(-c2ccc([N+](=O)[O-])cc2)nc2c(=O)n(C)c(=O)nc1-2`, the EC50 at 60 min in data set [1] came to 1 µM. The EC50 in data set [2] was 3.2 µM; in data set [3], 2.9 µM; in data set [4] it was 5.2 µM. In addition, the Activity result in the data set with THLE was “tde”.
For the molecule `CCn1cc(C(=O)O)c(=O)c2ccc(C)nc21` [NALIDIXIC ACID], the EC50 at 60 min in data set [1] was > 1000 µM. The EC50 in data set [2], in data set [3] and in data set [4] was > 300 µM in each case. For the same molecule, the Activity entry with THLE is “tde”.
Regarding `O=c1[nH]c(=O)c2nc3ccccc3nc2[nH]1` [ALLOXAZINE], the EC50 in data set [2], in data set [3] and in data set [4] was > 300 µM throughout. The Activity result with THLE is “tde”.
With `O=C1NC(=O)/C(=C\c2ccc(C(=O)O)cc2)C2=C1CCCC2`, in data set [1], the EC50 at 60 min worked out at 53 µM.
On to `Cn1c(=O)nc2sc3ccccc3nc-2c1=O`, for which the EC50 at 60 min in data set [1] was determined as 151 µM. Also, the concentration giving a half-maximal response (EC50) was 8.2 µM in data set [2], 9.9 µM in data set [3] and 10.6 µM in data set [4]. Moreover, the Activity result in the data set on THLE was “tde”.
As for `CC1=CC(=O)c2ccccc2C1=O` [MENADIONE], the EC50 at 60 min in data set [1] is 29 µM. For the same molecule, the results for the EC50 in data set [2], in data set [3] and in data set [4] were 17.7 µM, 27.5 µM and 94 µM, respectively. Moreover, the Activity result in the data set on THLE is “tde”.
As for `Cn1nc(-c2cccnc2)nc2c(=O)n(C)c(=O)nc1-2`, the EC50 at 60 min in data set [1] was 1 µM. Also, the EC50 in data set [2] stood at 2 µM; in data set [3] it was 2.1 µM; in data set [4] it was 5.2 µM. In the data set with THLE, the Activity result is “tde”.
Turning to `C[n+]1cc2c3c(ccc2c2ccc4cc5c(cc4c21)OCO5)OCO3` [SANGUINARIUM], the EC50 at 60 min in data set [1] came out at 513 µM. Further, the EC50 in data set [2] worked out at 0.93 µM; in data set [3] it was 0.89 µM; in data set [4] it was 1 µM. In the data set on THLE, the Activity entry was “tde”.
For `Cn1nc(/C=C\c2ccccc2)nc2c(=O)n(C)c(=O)nc1-2`, in data set [1], the EC50 at 60 min was found to be 1 µM. Moreover, the EC50 in data set [2] is 6.8 µM; in data set [3] it was 5.9 µM; in data set [4], 4.8 µM. Besides, the Activity result in the data set on THLE was “tde”.
In the case of `O=C1NC(=O)/C(=C\c2ccc(C3CCCCC3)cc2)C2=C1CCCC2`, the EC50 at 60 min in data set [1] is 121 µM.
Consider `NC(=O)N1C(=O)/C(=C(\O)c2ccc(Cl)s2)c2cc(Cl)ccc21`, for which the EC50 at 60 min in data set [1] came to 667 µM. The EC50 was 117 µM in data set [2], 253 µM in data set [3] and > 300 µM in data set [4]. Also, the Activity entry in the data set on THLE was “tde”.
For the molecule `O=c1nc2[nH]c3ccccc3nc-2c(=O)[nH]1` [ALLOXAZINE], the EC50 at 60 min in data set [1] was determined as 226 µM.
Take `COc1cc(/C=C2\C(=O)NC(=O)C3=C2CCCC3)cc(OC)c1OC`: in data set [1], the EC50 at 60 min was determined as 0.5 µM.
Turning to `C[n+]1ccc(-c2cc[n+](C)cc2)cc1` [PARAQUAT], the EC50 at 60 min in data set [1] was > 1000 µM. For the same molecule, the EC50 in data set [2], in data set [3] and in data set [4] was > 300 µM throughout. Besides, in the data set with THLE, the Activity result was “tde”.
`O=C1NC(=O)/C(=C\c2ccco2)C2=C1CCCC2`: the EC50 at 60 min in data set [1] came to 18 µM.
Take `Cn1nc(/C=C/c2ccccc2)nc2c(=O)n(C)c(=O)nc1-2`: in data set [1], the EC50 at 60 min amounted to 1 µM. Further, the figures for the EC50 in data set [2], in data set [3] and in data set [4] were 1.7 µM, 1.2 µM and 1.3 µM, respectively. In addition, the Activity result in the data set with THLE is “tde”.
Turning to `Nc1ccc2nc3c(=O)[nH]c(=O)nc-3[nH]c2c1`, the EC50 at 60 min in data set [1] was 110 µM. The concentration giving a half-maximal response (EC50) in data set [2] came to 245 µM; in data set [3], 250 µM; in data set [4], 264 µM. For the same molecule, the Activity result in the data set on THLE was “tde”.
Turning to `Cn1nc(-c2ccccc2)nc2c(=O)n(C)c(=O)nc1-2`, the EC50 at 60 min in data set [1] came out at 2 µM. Besides, the 50% effective concentration (EC50) worked out at 7.4 µM in data set [2], 4.5 µM in data set [3] and 9 µM in data set [4]. The Activity entry with THLE was “tde”.
Take `O=C1C=C(Cl)C(=O)c2ccccc21`: the EC50 at 60 min in data set [1] was determined as 2.5 µM. For the same molecule, the values for the EC50 in data set [2], in data set [3] and in data set [4] were 37.4 µM, 13.8 µM and 21.1 µM, respectively. Also, in the data set on THLE, the Activity entry is “tde”.
In the same order, the values of `O=C1NC(=O)/C(=C\c2ccccc2)C2=C1CCCC2` [TESIMIDE] are 26 µM, > 300 µM, > 300 µM, > 300 µM and “tde”.
`NC(=O)N1C(=O)/C(=C(\O)c2ccc(F)s2)c2cc(F)c(Cl)cc21`: the EC50 at 60 min in data set [1] came to 833 µM. For the same molecule, the EC50 in data set [2] is 108 µM; in data set [3], 175 µM; in data set [4], > 300 µM. In the data set with THLE, the Activity result is “tde”.
On to `CCOc1ccc2nc3c(=O)n(C)c(=O)nc-3sc2c1`, for which the EC50 at 60 min in data set [1] turned out to be 70 µM. The EC50 in data set [2] came to 68 µM; in data set [3] it was 79 µM; in data set [4] it was 46 µM. The Activity result in the data set with THLE is “tde”.
In the same order, the values of `Cn1nc(-c2cccs2)nc2c(=O)n(C)c(=O)nc1-2` are 2 µM, 3.1 µM, 2.9 µM, 2.4 µM and “tde”.
With `O=C1NC(=O)/C(=C\c2ccncc2)C2=C1CCCC2`, the EC50 at 60 min in data set [1] was 95 µM.
On to `Cc1cc(C)n(C)c2cccc(=O)c1-2`, for which, in data set [1], the EC50 at 60 min came to 33 µM. Besides, the EC50 in data set [2], in data set [3] and in data set [4] was > 300 µM in each case. Further, in the data set with THLE, the Activity entry is “tde”.
With `O=C1NC(=O)/C(=C\c2ccc(F)cc2)C2=C1CCCC2`, in data set [1], the EC50 at 60 min came to 60 µM.
For `Cn1nc(-c2ccncc2)nc2c(=O)n(C)c(=O)nc1-2`, the EC50 at 60 min in data set [1] amounted to 1 µM. Also, the EC50 in data set [2] was 3.1 µM; in data set [3] it was 5.8 µM; in data set [4], 11.7 µM. In the data set with THLE, the Activity entry was “tde”.
In the same order, the values of `COc1cccc2c1C(=O)c1c(O)c3c(c(O)c1C2=O)C[C@@](O)(C(=O)CO)C[C@@H]3O[C@H]1C[C@H](N)[C@H](O)[C@H](C)O1` [DOXORUBICIN] are 179 µM, 0.53 µM, 1.8 µM, 215 µM and “tde”.
As for `CCCCCc1ccc(/C=C2\C(=O)NC(=O)C3=C2CCCC3)cc1`, in data set [1], the EC50 at 60 min is 9.2 µM.
`CCCc1nc2c(=O)n(C)c(=O)nc-2n(C)n1`: the half-maximal effective concentration (EC50) at 60 min in data set [1] came out at 1 µM. Besides, the results for the EC50 in data set [2], in data set [3] and in data set [4] were 13 µM, 9.1 µM and 16.5 µM, respectively. The Activity result in the data set with THLE was “tde”.
